This note sets out measurements from US20170223953A1, “MICROBICIDAL COMPOSITION” (Dow Global Technologies LLC, priority 2016, published 2017).

The subject of the assay is Desulfovibrio longus ATCC 51456. In words: Biocidal efficacy (complete bacterial kill in 2 hours) and Synergy Index against anaerobic sulfate-reducing bacteria. In kind it is cell-based. The note with it: 35° C. How it is done: Surfactants and biocides were evaluated for synergy by determining the synergy index (S.I.) of the combination. Synergy index was calculated based on the concentration required to achieve a certain level of bacterial kill when the two antimicrobial compounds (A and B) are used alone and in combinations. The tests organisms were anaerobic sulfate-reducing bacteria (Desulfovibrio longus ATCC #51456). Inside an anaerobic chamber (Bactron anaerobic chamber), a deoxygenated sterile salt solution (3.1183 g of NaCl, 1.3082 mg of NaHCO3, 47.70 mg of KCl, 72.00 mg of CaCl2, 54.49 mg of MgSO4, 172.28 mg of Na2SO4, 43.92 mg of Na2CO3 in 1 L water) was inoculated with Desulfovibrio longus ATCC 51456 to a final bacterial concentration of 10^6 to 10^7 CFU/mL. Aliquots of this cell suspension were then treated with glutaraldehyde, and each of Surf A and B at selected active concentrations. After incubation at 35° C. for 2 hours, viable bacteria in the aliquots were enumerated using serial dilution method. […] SI is calculated as follows: Ca/CA+Cb/CB=Synergy Index (“SI”) Wherein: • Ca=Concentration of biocide A required to achieve a certain level of bacterial kill when used in combination with B • CA=Concentration of biocide A required to achieve a certain level of bacterial kill when used alone • Cb=Concentration of biocide B required to achieve a certain level of bacterial kill when used in combination with A • CB=Concentration of biocide B required to achieve a certain level of bacterial kill when used alone When the sum of Ca/CA and Cb/CB is greater than one, antagonism is indicated.

Regarding `O=CCCCC=O` [Glut, glutaraldehyde], the “Concentration (active ppm) for complete bacterial kill in 2 hours, Glut” value reads like this: (Table 1, Glut alone or in combination with Surf. A, 10^6 to 10^7 CFU/mL) 8.8 active ppm; (Table 2, Glut alone or in combination with Surf. B) 19.8 active ppm; (Table 3, Glut alone or in combination with Surf. C) 19.8 active ppm.
